Measured values taken from patent US9890152B2 (Genentech, Inc., priority 2012, dated 2018).
pEC50, pKi: −log10 of the molar value.

Assays:
EGFR del746-750 T790M = target: T1, EGFR del746-750 T790M (Homo sapiens, UniProt P00533, DEL746-750/T790M); test: EGFR del746-750 T790M biochemical assay (Caliper mobility shift); conditions: 5 μM ATP, 30 min, room temperature; apparent Ki (Morrison) converted by Cheng-Prusoff, Km of ATP 2.1 μM; read-out: EGFR(T790M/d746-750) Ki
T1 construct: purchased Carna Biosciences 08-528
T1 sequence (P00533 with tags, fused parts or gaps DEL746-750/T790M limits assumed): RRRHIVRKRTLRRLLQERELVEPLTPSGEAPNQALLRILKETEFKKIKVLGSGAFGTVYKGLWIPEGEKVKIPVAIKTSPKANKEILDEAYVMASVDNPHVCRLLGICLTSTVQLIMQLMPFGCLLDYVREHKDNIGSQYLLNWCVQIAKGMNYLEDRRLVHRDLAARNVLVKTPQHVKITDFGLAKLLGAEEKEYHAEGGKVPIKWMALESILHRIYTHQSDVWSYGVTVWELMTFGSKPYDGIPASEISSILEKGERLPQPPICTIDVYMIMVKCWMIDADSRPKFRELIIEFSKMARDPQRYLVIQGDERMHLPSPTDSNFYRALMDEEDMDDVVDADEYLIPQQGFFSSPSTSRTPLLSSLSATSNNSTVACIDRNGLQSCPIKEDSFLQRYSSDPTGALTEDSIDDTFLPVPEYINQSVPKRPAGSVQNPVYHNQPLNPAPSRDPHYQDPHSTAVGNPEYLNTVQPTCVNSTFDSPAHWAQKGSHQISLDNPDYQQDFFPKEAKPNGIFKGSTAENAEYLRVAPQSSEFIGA

[1] = target: T2, phosphor-EGFR in H1975(L585R/T790M) mutant EGFR expressing cells (Homo sapiens, UniProt P00533, L858R/T790M); test: H1975 pEGFR MSD cellular assay; assay type: cell-based; conditions: NCI-H1975 cells, serum starved, 1 hour compound incubation, pEGFR Tyr1068 MSD
T2 construct: host or cells: NCI-H1975
T2 sequence (P00533 25-1210 T790M/L858R): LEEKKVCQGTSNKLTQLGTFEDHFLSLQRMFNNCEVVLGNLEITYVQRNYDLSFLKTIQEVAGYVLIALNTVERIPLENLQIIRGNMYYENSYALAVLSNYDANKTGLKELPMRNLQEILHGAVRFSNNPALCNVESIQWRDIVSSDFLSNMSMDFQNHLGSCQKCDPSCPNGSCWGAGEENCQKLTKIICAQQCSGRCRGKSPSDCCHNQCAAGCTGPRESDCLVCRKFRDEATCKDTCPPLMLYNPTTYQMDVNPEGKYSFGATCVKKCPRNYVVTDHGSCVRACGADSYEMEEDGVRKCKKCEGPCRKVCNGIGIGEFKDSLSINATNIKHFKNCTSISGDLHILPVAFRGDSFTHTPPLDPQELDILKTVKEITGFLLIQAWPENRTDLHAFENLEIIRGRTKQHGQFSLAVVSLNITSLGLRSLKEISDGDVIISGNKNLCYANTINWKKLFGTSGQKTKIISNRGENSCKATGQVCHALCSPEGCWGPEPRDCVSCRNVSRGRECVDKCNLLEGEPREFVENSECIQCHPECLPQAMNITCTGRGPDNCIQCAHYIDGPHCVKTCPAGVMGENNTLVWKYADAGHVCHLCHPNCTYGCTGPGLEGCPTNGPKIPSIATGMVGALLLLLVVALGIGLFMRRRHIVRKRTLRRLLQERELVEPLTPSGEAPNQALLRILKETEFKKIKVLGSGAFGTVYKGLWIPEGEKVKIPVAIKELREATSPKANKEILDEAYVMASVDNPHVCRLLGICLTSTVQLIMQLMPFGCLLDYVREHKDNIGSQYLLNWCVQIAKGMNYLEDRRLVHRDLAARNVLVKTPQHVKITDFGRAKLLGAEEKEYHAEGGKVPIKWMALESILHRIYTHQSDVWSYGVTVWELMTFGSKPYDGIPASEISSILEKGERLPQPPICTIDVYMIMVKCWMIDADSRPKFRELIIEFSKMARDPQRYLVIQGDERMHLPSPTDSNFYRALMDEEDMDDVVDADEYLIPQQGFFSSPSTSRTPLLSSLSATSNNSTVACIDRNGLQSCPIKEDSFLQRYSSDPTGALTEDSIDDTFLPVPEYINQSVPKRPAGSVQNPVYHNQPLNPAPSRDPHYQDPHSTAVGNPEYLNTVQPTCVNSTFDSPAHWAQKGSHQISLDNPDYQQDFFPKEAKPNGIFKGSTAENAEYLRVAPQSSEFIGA
Description: H1975 pEGFR MSD Cellular Assays Background:
These assays are intended for determining cellular. […] (Meso Scale Discovery Catalog# N31CB-1).
All cell culture reagents were purchased from Invitrogen/Gibco. Cells are cultured at 37° C. at 5% CO2 and split as recommended by ATCC.
Cell Plating and Serum Starvation:
After six hours, culture medium is aspirated and replaced with serum-free culture medium. Cells are then incubated with the serum-free medium overnight at 37° C. and 5% CO2.
The following day, test compounds are serially diluted in dimethyl sulfoxide (DMSO) and added to cells in serum free medium (final DMSO concentration 0.5%). Assay plates are then incubated for 1 hour at 37° C. and 5% CO2. Following 1 hour of compound incubation cells are then lysed and processed as per the MSD pEGFR assay kit protocol. Cell lysates are added to assay plates pre-coated with antibodies against phosphorylated EGFR. Phosphorylated EGFR in samples are allowed to bind to the capture antibodies overnight at 4° C. The detection antibody (anti-total EGFR, labeled with an electrochemiluminescent SULFO-TAG) is added to the bound lysate and incubated for 1 hour at room temperature. The MSD Read Buffer is added such that when a voltage is applied to the plate electrodes, the labels bound to the electrode surface emit light. The MSD Sector Instrument measures the intensity of the light, and quantitatively measures the amount of phosphorylated-EGFR in the sample. Percent inhibition of EGFR phosphorylation by varying concentrations of test compounds is calculated relative to untreated controls. EC50 values are calculated using the 4 parameter logistic nonlinear regression dose-response model.

Row | SMILES | pKi (EGFR del746-750 T790M) | pEC50 [1]
1 | COC1CCN(c2nccc(Nc3cc4c(cn3)nc(C)n4C(C)C)n2)CC1 [Example 5, (1-Isopropyl-2-methyl-1H-imidazo[4,5-c]pyridin-6-yl)-[2-(4-methoxypiperidin-1-yl)pyrimidin-4-yl]amine] | 7.32 | 6.06
2 | COC1CCN(c2nccc(Nc3cc4c(cn3)nc(COCCN(C)C)n4C(C)C)n2)CC1 [Example 8, [2-(2-Dimethylaminoethoxymethyl)-1-isopropyl-1H-imidazo[4,5-c]pyridin-6-yl]-[2-(4-methoxypiperidin-1-yl)pyrimidin-4-yl]amine] | 6.97 | 6.23
3 | COC1CCN(c2nccc(Nc3cc4c(cn3)ncn4C3CCCC3)n2)CC1 [Example 26, (1-Cyclopentyl-1H-imidazo[4,5-c]pyridin-6-yl)-[2-(4-methoxy-piperidin-1-yl)-pyrimidin-4-yl]amine] | 7.60 | 5.92
4 | Cc1nc2cnc(Nc3ccnc(-c4cnn(S(=O)(=O)C5CC5)c4)n3)cc2n1C(C)C [Example 52, N-(2-(1-(Cyclopropylsulfonyl)-1H-pyrazol-4-yl)pyrimidin-4-yl)-1-isopropyl-2-methyl-1H-imidazo[4,5-c]pyridin-6-amine] | 8.74 | 6.60
5 | COC1CCN(c2nccc(Nc3cc4c(cn3)c(C#N)cn4C(C)C)n2)CC1 [Example 58, 1-Isopropyl-6-((2-(4-methoxypiperidin-1-yl)pyrimidin-4-yl)amino)-1H-pyrrolo[3,2-c]pyridine-3-carbonitrile] | 7.22 | 5.85
6 | COC1CCN(c2nccc(Nc3cc4c(cn3)c(-c3nnc(C)o3)cn4C(C)C)n2)CC1 [Example 59, 1-Isopropyl-N-(2-(4-methoxypiperidin-1-yl)pyrimidin-4-yl)-3-(5-methyl-1,3,4-oxadiazol-2-yl)-1H-pyrrolo[3,2-c]pyridin-6-amine] | 7.54 | 6.23
7 | COC1CCN(c2nccc(Nc3cc4c(cn3)nc(C(F)F)n4C(C)C)n2)CC1 [Example 110, 2-(difluoromethyl)-1-isopropyl-N-(2-(4-methoxypiperidin-1-yl)pyrimidin-4-yl)-1H-imidazo[4,5-c]pyridin-6-amine] | 6.84 | 6.21
8 | COC1CCN(c2nccc(Nc3cc4c(cn3)c(C(N)=O)cn4C(C)C)n2)CC1 [Example 115, 1-isopropyl-6-((2-(4-methoxypiperidin-1-yl)pyrimidin-4-yl)amino)-1H-pyrrolo[3,2-c]pyridine-3-carboxamide] | 7.55 | 6.15
9 | CC1(C)COc2nc3cnc(Nc4ccnc(-c5cnn(S(=O)(=O)C6CC6)c5)n4)cc3n21 [Example 280, [2-(1-Cyclopropanesulfonyl-1H-pyrazol-4-yl)-pyrimidin-4-yl]-(3,3-dimethyl-2,3-dihydro-1-oxa-3a,6,8-triazacyclopenta[a]inden-5-yl)-amine] | 8.05 | 5.76
10 | Cc1c(C(=O)NC2CCOCC2)c2cnc(Nc3ccnc(-c4cnn(S(=O)(=O)C5CC5)c4)n3)cc2n1C(C)C [Example 335, 6-((2-(1-(Cyclopropylsulfonyl)-1H-pyrazol-4-yl)pyrimidin-4-yl)amino)-1-isopropyl-2-methyl-N-(tetrahydro-2H-pyran-4-yl)-1H-pyrrolo[3,2-c]pyridine-3-carboxamide] | 8.64 | 6.60
11 | CC(C)n1c(CO)nc2cnc(Nc3ccnc(N4C[C@H]5CC[C@@H](C4)[C@H]5O)n3)cc21 [Example 433, (1R,5S,8r)-3-(4-((2-(hydroxymethyl)-1-isopropyl-1H-imidazo[4,5-c]pyridin-6-yl)amino)pyrimidin-2-yl)-3-azabicyclo[3.2.1]octan-8-ol] | 7.76 | 5.66
12 | CC1(C)CCOc2nc3cnc(Nc4ccnc(-c5cnn(S(=O)(=O)C6CC6)c5)n4)cc3n21 [Example 534, [2-(1-Cyclopropanesulfonyl-1H-pyrazol-4-yl)-pyrimidin-4-yl]-(4,4-dimethyl-3,4-dihydro-2H-1-oxa-4a,7,9-triazafluoren-6-yl)amine] | 8.25 | 5.86

Now those with a higher pEC50 [1], led by results:

Row | pKi (EGFR del746-750 T790M) | pEC50 [1] | SMILES
13 | 8.35 | 7.17 | CCC(C)n1cc(C(=O)NC2CCOC2)c2cnc(Nc3ccnc(N4CCC(O)C(C)(C)C4)n3)cc21 (mixture of isomers) [Example 373, 1-(sec-butyl)-6-((2-(4-hydroxy-3,3-dimethylpiperidin-1-yl)pyrimidin-4-yl)amino)-N-(tetrahydrofuran-3-yl)-1H-pyrrolo[3,2-c]pyridine-3-carboxamide]
14 | 8.55 | 7.46 | CCC(C)n1cc(C(=O)NC2CCOCC2)c2cnc(Nc3ccnc(N4CCC(O)C(C)(C)C4)n3)cc21 (mixture of isomers) [Example 383, 1-(sec-butyl)-6-((2-(4-hydroxy-3,3-dimethylpiperidin-1-yl)pyrimidin-4-yl)amino)-N-(tetrahydro-2H-pyran-4-yl)-1H-pyrrolo[3,2-c]pyridine-3-carboxamide]
15 | 8.30 | 6.72 | C[C@H](n1c([C@@H](C)O)nc2cnc(Nc3ccnc(N4CCC(O)C(F)C4)n3)cc21)C(F)(F)F (mixture of isomers) [Example 296, cis-3-Fluoro-1-{4-[2-((R)-1-hydroxyethyl)-1-((S)-2,2,2-trifluoro-1-methylethyl)-1H-imidazo[4,5-c]pyridin-6-ylamino]pyrimidin-2-yl}piperidin-4-ol]
16 | 8.26 | 6.62 | CCNC(=O)c1cn(C(C)CC)c2cc(Nc3ccnc(N4CC[C@@H](O)[C@@H](F)C4)n3)ncc12 (single isomer, unassigned) [Example 369]
17 | 8.54 | 7.84 | CCC(C)n1cc(C(=O)NC2CCOCC2)c2cnc(Nc3ccnc(N4CC[C@@H](OC)[C@@H](F)C4)n3)cc21 (single isomer, unassigned) [Example 376]
18 | 8.87 | 7.22 | CCC(C)n1cc(C(=O)NC2CCOCC2)c2cnc(Nc3ccnc(-c4cnn(S(=O)(=O)C5CC5)c4)n3)cc21 (single isomer, unassigned; (-)) [Example 322, (−)-1-(sec-butyl)-6-((2-(1-(cyclopropylsulfonyl)-1H-pyrazol-4-yl)pyrimidin-4-yl)amino)-N-(tetrahydro-2H-pyran-4-yl)-1H-pyrrolo[3,2-c]pyridine-3-carboxamide]
19 | 7.69 | 6.63 | CCNC(=O)c1cn(C(C)C)c2cc(Nc3ccnc(N4CCC(OC)CC4)n3)ncc12 [Example 57, N-Ethyl-1-isopropyl-6-((2-(4-methoxypiperidin-1-yl)pyrimidin-4-yl)amino)-1H-pyrrolo[3,2-c]pyridine-3-carboxamide]
20 | 8.83 | 7.24 | CC(C)n1c(Cl)c(C(=O)NC2CCOCC2)c2cnc(Nc3ccnc(-c4cnn(S(=O)(=O)C5CC5)c4)n3)cc21 [Example 262, 2-Chloro-6-(2-(1-(cyclopropylsulfonyl)-1H-pyrazol-4-yl)pyrimidin-4-ylamino)-1-isopropyl-N-(tetrahydro-2H-pyran-4-yl)-1H-pyrrolo[3,2-c]pyridine-3-carboxamide]
21 | 8.75 | 7.09 | CCNc1ncc(-c2nccc(Nc3cc4c(cn3)nc(C)n4C(C)C)n2)s1 [Example 295, [2-(2-Ethylaminothiazol-5-yl)pyrimidin-4-yl](1-isopropyl-2-methyl-1H-imidazo[4,5-c]pyridin-6-yl)amine]
22 | 9.08 | 6.95 | CNc1ncc(-c2nccc(Nc3cc4c(cn3)nc(C)n4C(C)C)n2)s1 [Example 312, (1-Isopropyl-2-methyl-1H-imidazo[4,5-c]pyridin-6-yl)-[2-(2-methylaminothiazol-5-yl)pyrimidin-4-yl]amine]
23 | 9.28 | 6.98 | CC(=O)Nc1cn(C(C)C)c2cc(Nc3ccnc(-c4cnn(S(=O)(=O)C5CC5)c4)n3)ncc12 [Example 327, N-(6-((2-(1-(Cyclopropylsulfonyl)-1H-pyrazol-4-yl)pyrimidin-4-yl)amino)-1-isopropyl-1H-pyrrolo[3,2-c]pyridin-3-yl)acetamide]
24 | 8.95 | 7.96 | CC(C)n1cc(-c2cnn(CCO)c2)c2cnc(Nc3ccnc(-c4cnn(S(=O)(=O)C5CC5)c4)n3)cc21 [Example 393, 2-(4-(6-((2-(1-(cyclopropylsulfonyl)-1H-pyrazol-4-yl)pyrimidin-4-yl)amino)-1-isopropyl-1H-pyrrolo[3,2-c]pyridin-3-yl)-1H-pyrazol-1-yl)ethanol]
25 | 8.83 | 7.11 | CC(C)n1cc(C(=O)NC2CCOCC2)c2cnc(Nc3ccnc(-c4cnn(S(=O)(=O)C5CC5)c4)n3)cc21 [Example 396]
26 | – | 6.78 | C[C@H](n1c([C@@H](C)O)nc2cnc(Nc3ccnc(-c4cnn(S(=O)(=O)C5CC5)c4)n3)cc21)C(F)(F)F [Example 572, (R)-1-[6-[2-(1-Cyclopropanesulfonyl-1H-pyrazol-4-yl)-pyrimidin-4-ylamino]-1-((S)-2,2,2-trifluoro-1-methylethyl)-1H-imidazo[4,5-c]pyridin-2-yl]-ethanol]
